Data as given in the METLIN SMRT retention time set (Domingo-Almenara et al. 2019).

Assay: gradient 5% acetonitrile 3 min, to 50% in 2 min, to 85% in 15 min, held 3 min, 100 µL/min
Conditions: column: Zorbax Extend-C18 2.1 x 50 mm; eluents: water / acetonitrile, 0.1% formic acid
Procedure, shortened: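 The mobile phases were water and acetonitrile, each with 0.1% formic acid, pumped at 100 μL/min through a Zorbax Extend-C18 column (2.1 × 50 mm, 1.8 μm). Pure standards were injected as mixtures of ~100 molecules and detected by a quadrupole time-of-flight mass spectrometer in positive and negative ionization mode. Retention time came from computationally picked adduct peaks, each inspected by hand.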

Structure (SMILES)	RP-LC retention time [s]
COc1ccc(NS(=O)(=O)c2ccc3c(c2)C(=O)N(C)c2ncccc2O3)cc1F	891
Cc1cc2c(OCC(CNC(C)(C)C)OC(=O)c3ccccc3)cccc2[nH]1 (centres undefined)	799
COc1ccc(C(=O)N2CCc3ccc(C(=O)Nc4ccc5c(c4)OCCO5)cc32)cc1	868
Cc1ccc(N2CCN(C(=O)c3c(C)oc4nc(C)nc(N5CCOCC5)c34)CC2)c(C)c1	1020
CCOC(=O)c1sc(NC(=O)c2cn(C)nc2OC)nc1C	767
CC1CCc2c(sc3nc(CCC(=O)NCCc4c[nH]c5ccccc45)[nH]c(=O)c23)C1 (centres undefined)	898
CC(=O)N1c2ccc(S(=O)(=O)N3CCCC3)cc2CC1C(=O)NCCCN1CCCCCC1 (centres undefined)	619
CC1(C)CC(=O)c2cn(-c3ccccc3)c(=O)c(C(=O)Nc3ccc(F)cc3F)c2C1	1090
Cc1ccc(CNC(=O)c2c(C)oc3nc(C)nc(N4CCOCC4)c23)cc1	787
CCCNC(=O)C1CCN(c2ccc(SCC(=O)Nc3ccccc3OCC)nn2)CC1	621
Cc1ccc(CNC(=O)C2CCN(C(=O)c3nn(C)c4c3CN(C(=O)C(C)C)CC4)CC2)cc1	702
Cc1cc(C)cc(NC(=O)C2CCc3sc(C(=O)N4CCOCC4)cc3C2)c1 (centres undefined)	856
CCOc1ccc(Cl)cc1S(=O)(=O)N1CCC(C(=O)Nc2ccccc2C(=O)OC)CC1	1150
CCc1nccn1Cc1nc(-c2cccc(C(F)(F)F)c2)no1	686
CCC(C(=O)NCCc1c[nH]c2ccccc12)n1c2ccccc2c2cnn(C)c(=O)c21 (centres undefined)	916
COc1ccc(Cn2nnc(C(=O)NCC3CCCO3)c2-n2cccc2)cc1 (centres undefined)	832
O=C(CCc1nnn2c1CN(C(=O)Nc1cccc(F)c1)CC2)NC1CC1	664
CCCNC(=O)Cn1cnc2sc(C(=O)N3CC(C)CC(C)C3)c(C)c2c1=O (centres undefined)	779
O=C(Cn1nc2c3cc(-c4ccc(F)cc4)nn3ccn2c1=O)N1CCCC1	758
CCOC(=O)c1c(C)c(CCC(=O)NC(C)c2ccccc2)n(C)c1C (centres undefined)	904
Cc1ccc2ncn(C3CCN(S(=O)(=O)c4cccc(Cl)c4)CC3)c(=O)c2c1	963
Cn1c(=O)n(C)c2cc(S(=O)(=O)C3CCCCC3)c(NC(=O)c3c(F)cccc3F)cc21	914

Structure (SMILES)	RP-LC retention time [s]
COc1ccc(C(=O)N2CCCn3nc(-c4cccs4)cc3C2)cn1	766
CCc1ccc(Nc2cc(C(=O)N3CCCCC3)nc3cc(OC)c(OC)cc23)cc1	766
O=C(Cn1cnc2onc(-c3ccc(Cl)cc3)c2c1=O)N1CCCc2ccccc21	1100
CCS(=O)(=O)N1CC(=O)N(c2cccc(C)c2C)C(C)(C(=O)NC2CCCCCC2)C1 (centres undefined)	930
O=C(Cn1c(N2CCCCC2)nc2ccccc2c1=O)N1CCN(c2ccccn2)CC1	643
CCc1ccc(Nc2nc(C(=O)NCCc3cccs3)nc3ccccc23)cc1	907
COc1ccc(C2(C(=O)N3CCCC(CO)CCNC(=O)CC3)CC2)cc1 (centres undefined)	622
CCc1ccc(-c2ccc(-n3nc(C)c(S(=O)(=O)N4CCCC4)c3C)nn2)cc1	1170
COc1ccccc1NC(=O)N1CCC(CNS(=O)(=O)Cc2cccc(F)c2)CC1	787
CCCn1cc(CCNS(=O)(=O)c2ccccc2C)c2cccnc21	830
CCOc1ccccc1-n1nnc(C(=O)OC)c1C(=O)OC	862
COc1ccc(-c2csc3ncn(-n4c(C)ccc4C)c(=O)c23)cc1OC	905
Cc1ccc(Nc2c(-c3ccccc3O)nc3cc(C)ccn23)cc1	701
COc1ccccc1NC(=O)Cc1nnc(-c2ccc3ncccc3c2)o1	724
CCn1ccc(C(=O)N2CCC(N3C(=O)C(O)C34CCCCC4)CC2)n1 (centres undefined)	603
Cn1cc(C(=O)NCCc2ccccc2)c(S(=O)(=O)N2CCSCC2)n1	1030
Cc1ccn2cc(-c3ccc(C)c(NS(=O)(=O)c4ccc(C)c(C)c4)c3)nc2c1	729
CCOC(=O)C(C)Sc1nnc2n1CCN2c1ccc(F)cc1 (centres undefined)	718
O=C(O)CCCCCNc1nc(-c2ccccc2)nc2ccccc12	623
CCC(=O)Nc1ccc(CCc2nc3ccc(C(=O)NC(C)CCc4ccccc4)cc3[nH]2)cc1 (centres undefined)	714
O=C(NC1CC1)c1cccc2c1CCN2C(=O)C1CC1	649
CC(C)OCCCN(CC(=O)N1CCNCC1)C(=O)c1ccc(C(F)(F)F)cc1	653

Structure (SMILES)	RP-LC retention time [s]
O=C(Nc1cccc(OCc2nnc(-c3ccc(Cl)cc3)o2)c1)c1cnccn1	946
CC(C)NC(=O)CCc1c(-c2ccc(Cl)cc2)nc2ccccn12	622
COc1ccc(C(=O)N2C[C@@H]3C[C@H]2C[C@@H]3NC(=O)c2ccccc2)cc1OC	678
COc1cc(=O)n(-c2ccccc2)nc1C(=O)N1c2ccc(F)cc2CCC1C (centres undefined)	866
O=C(Cc1ccc(Cl)cc1)N1C[C@@H]2C[C@H]1C[C@@H]2NS(=O)(=O)c1cccs1	838
COc1cccc(-c2noc(Cn3ccn(-c4ccccc4C)c(=O)c3=O)n2)c1OC	798
O=C(C1Sc2ccccc2N(CC(=O)N2CCc3ccccc32)C1=O)N1CCCCCC1 (centres undefined)	987
O=C(C1CCCN(c2cnc3nccnc3c2)C1)N1CCN(C2CCCCC2)CC1 (centres undefined)	567
CC(=O)c1ccc(NC(=O)C2CCCN(c3nc(C)nc4oc(C)c(C)c34)C2)cc1 (centres undefined)	839
CCCCc1ccc(NC(=O)NC2CCN(c3cc(N4CCCC4)cnn3)C2)cc1 (centres undefined)	814
CC1CCN(S(=O)(=O)c2cc(-c3ccc(N4CCCC(C)C4)nn3)cs2)CC1 (centres undefined)	915
Cc1ccccc1CNC(=O)C1CCN(S(=O)(=O)c2c(C)[nH]c(C)c2C(=O)N2CCCC2)CC1	727
CCCn1ccc2sc(C)c(C(=O)NCc3ccccc3Cl)c2c1=O	980
Cc1ccc(CNC(=O)CCc2c(-c3ccc(Br)cc3)nc3ccccn23)cc1	709
O=C(Cn1nc2c(N3CCc4ccccc4C3)nccn2c1=O)NCCC1=CCCCC1	984
Cc1ccc(CNc2nnc(-c3nc(C4CC4)no3)c3ccccc23)cc1	958
Cc1ccc(S(=O)(=O)N2CCC(C(=O)NCc3csc(-c4cccs4)n3)CC2)c(C)c1	977
Cc1cc(-c2nnc(NC(=O)Cc3ccc4c(c3)OCO4)o2)n(C)n1	648
CC(C)Oc1ccc(-c2noc(Cc3nnc(-c4ccccc4)o3)n2)cc1	1100
O=C(CCCN1CCC2(CC1)C(=O)N(Cc1cccc(F)c1)CN2c1ccccc1)c1ccc(F)cc1	981
